Where “and” joins values, the source holds several entries; their conditions need not be identical. Equal values may be shown once.

The values that follow come from BindingDB's records for patent US20230322769 (Jiangsu Chia Tai Fenghai Pharmaceutical, 2023).

Data set [1] addresses Proto-oncogene tyrosine-protein kinase receptor Ret (Homo sapiens, UniProt P07949). Briefly: Inhibition of RET Family Kinases Activity.
For data set [2], the target named is Vascular endothelial growth factor receptor 2 (Homo sapiens, UniProt P35968). Briefly: Inhibition of RET Family Kinases Activity.
Chain of Vascular endothelial growth factor receptor 2 (P35968 whole entry): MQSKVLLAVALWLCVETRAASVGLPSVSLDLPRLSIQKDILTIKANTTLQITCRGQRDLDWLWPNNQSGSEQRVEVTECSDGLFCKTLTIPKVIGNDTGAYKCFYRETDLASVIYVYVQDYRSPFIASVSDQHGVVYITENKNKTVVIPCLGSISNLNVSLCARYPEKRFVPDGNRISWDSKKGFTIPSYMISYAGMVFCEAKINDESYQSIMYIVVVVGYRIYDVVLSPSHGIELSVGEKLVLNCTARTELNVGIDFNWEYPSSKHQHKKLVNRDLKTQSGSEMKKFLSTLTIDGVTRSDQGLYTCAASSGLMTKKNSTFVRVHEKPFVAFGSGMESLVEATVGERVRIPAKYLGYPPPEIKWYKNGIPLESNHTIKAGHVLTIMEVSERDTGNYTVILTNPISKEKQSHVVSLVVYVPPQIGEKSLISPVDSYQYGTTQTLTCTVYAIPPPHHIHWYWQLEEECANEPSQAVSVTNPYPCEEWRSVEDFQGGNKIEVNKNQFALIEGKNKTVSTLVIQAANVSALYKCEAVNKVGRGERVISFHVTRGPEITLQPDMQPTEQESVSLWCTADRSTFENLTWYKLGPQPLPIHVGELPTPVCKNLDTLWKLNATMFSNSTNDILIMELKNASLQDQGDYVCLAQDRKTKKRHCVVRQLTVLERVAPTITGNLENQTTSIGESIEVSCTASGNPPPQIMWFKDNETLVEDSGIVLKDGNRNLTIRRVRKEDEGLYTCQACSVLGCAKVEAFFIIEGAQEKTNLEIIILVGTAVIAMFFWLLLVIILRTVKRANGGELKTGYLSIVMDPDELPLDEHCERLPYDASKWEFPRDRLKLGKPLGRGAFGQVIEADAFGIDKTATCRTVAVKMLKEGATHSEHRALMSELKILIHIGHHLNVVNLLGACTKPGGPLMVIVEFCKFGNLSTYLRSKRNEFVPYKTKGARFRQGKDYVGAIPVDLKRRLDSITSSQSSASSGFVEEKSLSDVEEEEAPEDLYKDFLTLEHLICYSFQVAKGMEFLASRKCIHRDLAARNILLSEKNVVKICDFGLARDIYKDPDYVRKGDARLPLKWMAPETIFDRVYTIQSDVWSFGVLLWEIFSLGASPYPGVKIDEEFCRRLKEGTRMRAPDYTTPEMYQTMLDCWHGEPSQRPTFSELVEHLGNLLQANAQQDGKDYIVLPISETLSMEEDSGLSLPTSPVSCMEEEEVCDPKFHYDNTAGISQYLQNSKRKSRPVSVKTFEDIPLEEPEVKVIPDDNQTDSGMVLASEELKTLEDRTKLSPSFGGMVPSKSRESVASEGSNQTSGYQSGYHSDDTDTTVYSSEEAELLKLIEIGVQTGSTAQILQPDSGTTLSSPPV
Data set [3] has as its target Proto-oncogene tyrosine-protein kinase receptor Ret [M918T] (Homo sapiens, UniProt P07949, M918T). The data set can be described thus: Inhibition of RET Family Kinases Activity.
The target of data set [4] is Proto-oncogene tyrosine-protein kinase receptor Ret [V804M] (Human, UniProt P07949, V804M). Briefly: Inhibition of RET Family Kinases Activity.
Chain of Proto-oncogene tyrosine-protein kinase receptor Ret [V804M] (P07949 29-1114 V804M limits assumed): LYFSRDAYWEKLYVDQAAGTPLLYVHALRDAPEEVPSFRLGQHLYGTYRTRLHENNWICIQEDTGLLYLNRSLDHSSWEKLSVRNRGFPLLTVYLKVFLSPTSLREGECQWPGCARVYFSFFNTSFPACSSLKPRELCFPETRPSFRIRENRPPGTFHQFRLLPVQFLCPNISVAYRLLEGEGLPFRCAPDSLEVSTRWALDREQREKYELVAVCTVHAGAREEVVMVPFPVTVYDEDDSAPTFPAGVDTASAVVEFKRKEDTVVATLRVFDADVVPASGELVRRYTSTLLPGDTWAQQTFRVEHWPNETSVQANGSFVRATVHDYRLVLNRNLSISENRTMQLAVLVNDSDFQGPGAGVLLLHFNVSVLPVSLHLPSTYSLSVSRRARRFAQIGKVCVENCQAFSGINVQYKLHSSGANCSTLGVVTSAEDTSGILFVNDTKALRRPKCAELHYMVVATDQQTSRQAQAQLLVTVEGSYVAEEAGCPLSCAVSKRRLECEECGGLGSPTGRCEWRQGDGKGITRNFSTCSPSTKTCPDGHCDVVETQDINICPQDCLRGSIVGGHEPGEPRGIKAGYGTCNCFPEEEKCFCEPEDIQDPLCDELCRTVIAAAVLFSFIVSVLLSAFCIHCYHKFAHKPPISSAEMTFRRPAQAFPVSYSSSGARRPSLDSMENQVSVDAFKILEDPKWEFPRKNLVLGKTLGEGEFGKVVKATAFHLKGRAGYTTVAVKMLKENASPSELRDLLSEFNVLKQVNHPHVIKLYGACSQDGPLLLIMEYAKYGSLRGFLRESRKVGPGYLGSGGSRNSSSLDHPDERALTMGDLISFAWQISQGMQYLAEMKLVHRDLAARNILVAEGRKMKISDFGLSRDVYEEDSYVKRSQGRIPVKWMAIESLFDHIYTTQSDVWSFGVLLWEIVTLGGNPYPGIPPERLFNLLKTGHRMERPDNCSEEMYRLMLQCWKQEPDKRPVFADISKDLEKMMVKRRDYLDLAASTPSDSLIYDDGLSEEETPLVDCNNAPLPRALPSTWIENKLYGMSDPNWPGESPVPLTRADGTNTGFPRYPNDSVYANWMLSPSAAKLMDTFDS
Data set [5] addresses Coiled-coil domain-containing protein 6/Proto-oncogene tyrosine-protein kinase receptor Ret (Homo sapiens, UniProt P07949). Briefly: Inhibition of RET Family Kinases Activity.
In data set [6] the target is Potassium voltage-gated channel subfamily H member 2 (Homo sapiens, UniProt Q12809). Briefly: Inhibition of hERG Potassium Channel. On the procedure: Whole-cell patch-clamp recording was carried out. […] This procedure was repeated every 20 seconds. The hERG tail current was a pure hERG current.

Chain of Coiled-coil domain-containing protein 6/Proto-oncogene tyrosine-protein kinase receptor Ret (P07949 whole entry, the tested form may be a part): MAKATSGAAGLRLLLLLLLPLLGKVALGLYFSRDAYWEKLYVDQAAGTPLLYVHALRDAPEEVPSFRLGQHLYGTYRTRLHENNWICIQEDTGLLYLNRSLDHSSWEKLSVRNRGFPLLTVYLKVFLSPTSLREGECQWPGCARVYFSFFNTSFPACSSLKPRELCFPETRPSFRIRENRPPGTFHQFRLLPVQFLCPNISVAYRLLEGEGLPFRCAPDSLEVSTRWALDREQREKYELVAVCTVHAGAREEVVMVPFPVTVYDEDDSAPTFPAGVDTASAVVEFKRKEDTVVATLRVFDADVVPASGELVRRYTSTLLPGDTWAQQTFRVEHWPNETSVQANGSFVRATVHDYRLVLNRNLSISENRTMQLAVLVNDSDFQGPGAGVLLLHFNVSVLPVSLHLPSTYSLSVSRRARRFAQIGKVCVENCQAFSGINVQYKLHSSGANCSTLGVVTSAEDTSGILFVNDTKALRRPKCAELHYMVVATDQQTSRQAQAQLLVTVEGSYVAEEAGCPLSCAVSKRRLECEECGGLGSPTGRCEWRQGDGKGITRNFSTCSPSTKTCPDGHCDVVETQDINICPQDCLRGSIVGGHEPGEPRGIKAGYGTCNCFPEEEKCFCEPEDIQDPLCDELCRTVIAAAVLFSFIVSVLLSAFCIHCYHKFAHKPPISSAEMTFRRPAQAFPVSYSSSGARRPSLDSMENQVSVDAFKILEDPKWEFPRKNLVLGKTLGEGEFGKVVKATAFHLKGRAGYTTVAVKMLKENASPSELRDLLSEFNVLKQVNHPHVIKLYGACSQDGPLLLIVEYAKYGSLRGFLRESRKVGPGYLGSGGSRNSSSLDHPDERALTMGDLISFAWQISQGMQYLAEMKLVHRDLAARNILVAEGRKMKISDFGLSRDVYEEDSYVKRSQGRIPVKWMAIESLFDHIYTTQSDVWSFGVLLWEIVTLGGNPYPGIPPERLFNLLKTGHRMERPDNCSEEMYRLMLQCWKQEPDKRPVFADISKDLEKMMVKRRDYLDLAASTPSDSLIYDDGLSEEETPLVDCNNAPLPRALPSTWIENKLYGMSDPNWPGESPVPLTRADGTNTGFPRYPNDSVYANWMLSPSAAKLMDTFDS
Chain of Coiled-coil domain-containing protein 6/Proto-oncogene tyrosine-protein kinase receptor Ret (Q16204 whole entry, further chain, the tested form may be a part): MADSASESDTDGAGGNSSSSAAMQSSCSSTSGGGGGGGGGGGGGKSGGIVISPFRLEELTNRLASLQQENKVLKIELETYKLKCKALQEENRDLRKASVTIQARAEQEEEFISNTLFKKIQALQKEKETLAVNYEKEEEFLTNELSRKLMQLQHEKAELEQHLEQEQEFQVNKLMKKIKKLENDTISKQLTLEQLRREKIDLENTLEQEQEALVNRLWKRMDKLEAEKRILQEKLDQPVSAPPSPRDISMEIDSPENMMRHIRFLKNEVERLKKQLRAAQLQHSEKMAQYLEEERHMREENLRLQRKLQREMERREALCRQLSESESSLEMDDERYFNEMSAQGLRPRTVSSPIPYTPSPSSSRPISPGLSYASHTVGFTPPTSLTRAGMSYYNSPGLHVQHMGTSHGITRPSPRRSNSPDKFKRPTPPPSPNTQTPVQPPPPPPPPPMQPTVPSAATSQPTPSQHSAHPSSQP
Chain of Proto-oncogene tyrosine-protein kinase receptor Ret (P07949 whole entry): as the sequence (P07949 whole entry, the tested form may be a part) above
Chain of Proto-oncogene tyrosine-protein kinase receptor Ret [M918T] (P07949 29-1114 M918T limits assumed): as the sequence (P07949 29-1114 V804M limits assumed) above, with M776V, M890T counted along it

As for `COc1ccc(CN2C3CC2CN(c2ccc(-c4cc(N5CC(C)(C)OC5C5CC5)cn5ncc(C#N)c45)cn2)C3)cn1` (stereo unspecified) [US20230322769, Compound 80], the 50% inhibitory concentration (IC50) was found to be 21.6 nM in data set [1] and 566 nM in data set [2].
In the case of `COc1ccc(CN2CCN(c3nc(-c4cc(-c5cnn(C)c5)cn5ncc(C#N)c45)cs3)CC2)cn1` [US20230322769, Compound 39], the IC50 stood at 98.3 nM in data set [1], 326 nM in data set [3] and 860 nM in data set [4].
As to `COc1ccc(CN2C3CC2CN(c2ccc(-c4cc(N5CC6CC(C5)N6)cn5ncc(C#N)c45)cn2)C3)cn1` [US20230322769, Compound 16], the IC50 in data set [5] came out at 3.65 nM; in data set [1] it was 8.4 nM; in data set [3] it was 2.42 nM; in data set [4], 4.78 nM; in data set [2], 406 nM.
Regarding `COc1ccc(C(=O)N2CCN(c3ccc(-c4cc(-c5cc6n(n5)CCC6)cn5ncc(C#N)c45)cn3)CC2)cn1` [US20230322769, Compound 68], the IC50 came out at 6.01 nM in data set [5]; 12.6 nM in data set [1]; 10.7 nM in data set [3]; 26.3 nM in data set [4]; 186 nM in data set [2].
`COc1ccc(CN2C3CC2CN(c2ccc(-c4cc(N5CCNCC5)cn5ncc(C#N)c45)cn2)C3)cn1` [US20230322769, Compound 96]: the IC50 in data set [1] stood at 5.24 nM; in data set [2], 240 nM.
With `COc1ccc(CN(C)CCN(C)c2ccc(-c3cc(-c4cnn(C)c4)cn4ncc(C#N)c34)cn2)cn1` [US20230322769, Compound 17-a], the IC50 was 17.2 nM in data set [5], 27.9 nM in data set [1], 48.4 nM in data set [3] and 128 nM in data set [4].
The molecule `COc1ccc(CN2C3CC2CN(c2ccc(-c4cc(N5CCOC[C@H]5C)cn5ncc(C#N)c45)cn2)C3)cn1` [US20230322769, Compound 85] registered an IC50 in data set [1] of 19 nM.
With `COc1ccc(CN2C3CC2CN(c2ccc(-c4cc(NCC(C)(C)O)cn5ncc(C#N)c45)cn2)C3)cn1` [US20230322769, Compound 78], the concentration for half-maximal inhibition (IC50) in data set [5] turned out to be 4.6 nM; in data set [1], 1.28 nM; in data set [3], 5.47 nM; in data set [4] it was 8.23 nM; in data set [2] it was 51.9 nM.
For the molecule `COc1ccc(CN2C3CC2CN(c2ccc(-c4cc(N(CC5CC5)CC(C)(C)O)cn5ncc(C#N)c45)cn2)C3)cn1` [US20230322769, Compound 81], the IC50 in data set [1] came to 193 nM; in data set [2], 612 nM.
Turning to `COc1ccc(CN2CCCN(c3ccc(-c4cc(-c5cc6n(n5)CCC6)cn5ncc(C#N)c45)cn3)CC2)cn1` [US20230322769, Compound 70], the half-inhibitory concentration (IC50) turned out to be 30.7 nM in data set [5]; 26.6 nM in data set [1]; 42.8 nM in data set [3]; 111 nM in data set [4]; 387 nM in data set [2]; 4740 nM in data set [6].
Regarding `COc1ccc(CN2C3CC2CN(c2ccc(-c4cc(N5CCN(C)C(=O)C5)cn5ncc(C#N)c45)cn2)C3)cn1` [US20230322769, Compound 89], the IC50 in data set [5] came to 3.04 nM; in data set [1], 0.674 nM; in data set [3], 1.47 nM; in data set [4], 4.72 nM; in data set [2], 157 nM.
For `COc1ccc(CN2C3CC2CN(c2ccc(-c4cc(N5CCP(C)(=O)CC5)cn5ncc(C#N)c45)cn2)C3)cn1` [US20230322769, Compound 20] the same measures were 2.14 nM, 4.1 nM, 1.45 nM, 3.23 nM and 340 nM.
Turning to `COc1ccc(CN2C3CC2CN(c2ccc(-c4cc(N5CCOCC5)cn5ncc(C#N)c45)cn2)C3)cn1` [US20230322769, Compound 65], the IC50 in data set [5] was 0.52 nM; in data set [1] it was 1.09 nM; in data set [3] it was 0.92 nM; in data set [4], 3.37 nM; in data set [2] it was 92.8 nM.
For `COc1ccc(CN2C3CC2CN(c2ccc(-c4cc(N5CC6CC(C5)N6C)cn5ncc(C#N)c45)cn2)C3)cn1` [US20230322769, Compound 17], the IC50 in data set [1] is 5.5 nM; in data set [3], 1.7 nM; in data set [4] it was 3.82 nM; in data set [2], 551 nM.
On to `COc1ccc(CN2C3CC2CN(c2ccc(-c4cc(-c5cc6n(n5)CCC6)cn5ncc(C#N)c45)cn2)C3)cn1` [US20230322769, Compound 66], for which the IC50 in data set [1] was 2.24 nM; in data set [3], 4.06 nM; in data set [4] it was 4.33 nM and 7.69 nM.
In turn, `COc1ccc(CN2C3CC2CN(c2ccc(-c4cc(N5CCOC[C@@H]5C)cn5ncc(C#N)c45)cn2)C3)cn1` [US20230322769, Compound 84] had an IC50 in data set [1] of 24.8 nM.
In the case of `COc1ccc(CN2C3CC2CN(c2ccc(-c4cc(N5CCCC(O)C5)cn5ncc(C#N)c45)cn2)C3)cn1` (stereo unspecified) [US20230322769, Compound 82], the IC50 in data set [1] was 10.7 nM; in data set [2], 280 nM.
In turn, `COc1ccc(CN2C3CC2CN(c2ccc(-c4cc(N5CCOC(C)C5)cn5ncc(C#N)c45)cn2)C3)cn1` (stereo unspecified) [US20230322769, Compound 83] showed a half-inhibitory concentration (IC50) in data set [1] of 15.8 nM.
Consider `COc1ccc(CN2CCC(n3cc(-c4cc(-c5cnn(C)c5)cn5ncc(C#N)c45)cn3)CC2)cn1` [US20230322769, Compound 43], for which the half-inhibitory concentration (IC50) in data set [1] was determined as 30.9 nM; in data set [3], 53.1 nM; in data set [4], 242 nM.
As to `COc1ccc(CN2C3CC2CN(c2ccc(-c4cc(N5CC(C)(O)C5)cn5ncc(C#N)c45)cn2)C3)cn1` [US20230322769, Compound 86], the IC50 in data set [1] is 4.56 nM; in data set [2], 71.3 nM.
Regarding `COc1ccc(CN2C3CC2CN(c2ccc(-c4cc(N5CCN(C)CC5)cn5ncc(C#N)c45)cn2)C3)cn1` [US20230322769, Compound 94], the results for the IC50 in data set [5], in data set [3] and in data set [2] were 3 nM, 2.78 nM and 154 nM, respectively.
For `COc1ccc(CN2C3CC2CN(c2ccc(-c4cc(N5CC6(COC6)C5)cn5ncc(C#N)c45)cn2)C3)cn1` [US20230322769, Compound 88], the IC50 came to 7.22 nM in data set [1] and 96.9 nM in data set [2].

What is called IC50 is the midpoint of a concentration-inhibition curve. Read a low IC50 as greater potency.
